Assay results published in publication PMC9539459 (Virology, 2022).
“Also recorded” adds a separate entry of the source. Like-named read-outs stand apart in the source and are kept apart here.

Columns and labels:
[1] = system: SARS-CoV-2; format: cell-based
[2] = system: SARS-CoV-2; assay: Cell-based antiviral drug testing in Vero-E6 cells; details: for antiviral activity (in words): top 9 screened compounds, Vero-E6, percent inhibition, SRB assay

Cc1oc(-c2ccccc2)nc1CCC(=O)c1ccc(CC2SC(=O)NC2=O)cc1 (stereo not shown) [Darglitazone Sodium]
inhibition of viral particle production (in words) [1]: greater anti-SARS-CoV-2 activity
reduction of infectious virus production [1]: over 3 orders of magnitude
inhibition of viral particle production (in words) ([1]; listed as darglitazone sodium): inhibit production of SARS-CoV-2
EC50 [2]: < 10 µM
antiviral activity (in words) [2]: substantial antiviral activity

C/C=C(/C)C(=O)OC(C)(C)[C@@H]1Cc2c(ccc3ccc(=O)oc23)O1 [Columbianadin]
inhibition of viral particle production (in words) [1]: inhibit production of SARS-CoV-2
antiviral activity (in words) [2]: substantial antiviral activity

CNC(=O)c1ccc(-c2cnc3ncc(Cc4ccc5ncccc5c4)n3n2)cc1F [INCB28060]
inhibition of viral particle production (in words) [1]: inhibit production of SARS-CoV-2; also recorded: greater anti-SARS-CoV-2 activity
reduction of infectious virus production [1]: over 3 orders of magnitude
antiviral activity (in words) [2]: best antiviral activity; also recorded: substantial antiviral activity
